What was measured:
[1] = Solubility of L-carnitine tartrate in ethanol in relation to the water content of the ethanol (FIG. 1); format: physicochemical; conditions: ethanol comprising less than 5% water / no or low amounts of water
Excerpt: Without being bound to theory, it is assumed that the strong improvements of the inventive process are associated with the low solubility of L-carnitine tartrate in ethanol comprising no water or only low amounts of water. […] The relationship of L-carnitine tartrate solubility to the water content of ethanol is shown in the scheme of FIG. 1. […] Thereby, high yields are obtained even when avoiding extreme temperatures for heating and cooling.

[2] = cited from earlier work

Row | SMILES | solubility in ethanol ([1]; L-tartrate) | solubility in ethanol ([1]; listed as carnitine tartrate, L-tartrate) | stability during storage ([2]; normal air moisture, disclosed in EP 0 434 088 A1) | solubility in ethanol [1] | hygroscopicity ([2]; pure carnitine)
1 | C[N+](C)(C)C[C@H](O)CC(=O)[O-].O=C(O)C(O)C(O)C(=O)O [L-carnitine tartrate, L-carnitine L-tartrate] | decreased dramatically | very low | stable | – | –
2 | C[N+](C)(C)CC(O)CC(=O)[O-] [L-carnitine, 3-hydroxy-4-trimethylammonio-butanoate] | – | – | – | almost insoluble | highly hygroscopic
